ChEMBL document CHEMBL4673175, “An epigrammatic status of the azole-based antimalarial drugs” (RSC Med Chem, 2020)
Blank lines part the entries; values can stand above or below the molecule they belong to.

How the values were obtained:
Plasmodium falciparum [1] = test: Antimalarial activity against chloroquine resistant Plasmodium falciparum incubated for 24 to 48 hrs by Giemsa staining based assay; format: functional, organism-based
Plasmodium falciparum [2] = test: Antimalarial activity against chloroquine sensitive Plasmodium falciparum incubated for 24 to 48 hrs by Giemsa staining based assay; format: functional, organism-based
Plasmodium falciparum [3] = test: Antimalarial activity against chloroquine-resistant ring-stage Plasmodium falciparum W2 infected in human erythrocytes by HRP2 assay; format: functional, organism-based
Plasmodium falciparum [4] = test: Antiplasmodial activity against chloroquine sensitive Plasmodium falciparum D10; format: functional, organism-based
Plasmodium falciparum [5] = test: Antimalarial activity against chloroquine sensitive Plasmodium falciparum 3D7 incubated for 72 hrs by JSB1/JSB2 staining based assay; format: functional, organism-based; settings: 3D7, 72 h
Plasmodium falciparum [6] = test: Antiplasmodial activity against chloroquine resistant Plasmodium falciparum Dd2; format: functional, organism-based
Plasmodium falciparum [7] = test: Antimalarial activity against Plasmodium falciparum assessed as reduction in [3H]-hypoxanthine incorporation into DNA incubated for 36 hrs by beta counter method; format: functional, organism-based
[8] = biological target: T1, Enoyl-acyl-carrier protein reductase (Plasmodium falciparum, UniProt Q965D5); test: Inhibition of Plasmodium falciparum enoyl-ACP reductase using crotonoyl-CoA as substrate by UV-Vis spectrophotometric method
T1 sequence (Q965D5 whole entry): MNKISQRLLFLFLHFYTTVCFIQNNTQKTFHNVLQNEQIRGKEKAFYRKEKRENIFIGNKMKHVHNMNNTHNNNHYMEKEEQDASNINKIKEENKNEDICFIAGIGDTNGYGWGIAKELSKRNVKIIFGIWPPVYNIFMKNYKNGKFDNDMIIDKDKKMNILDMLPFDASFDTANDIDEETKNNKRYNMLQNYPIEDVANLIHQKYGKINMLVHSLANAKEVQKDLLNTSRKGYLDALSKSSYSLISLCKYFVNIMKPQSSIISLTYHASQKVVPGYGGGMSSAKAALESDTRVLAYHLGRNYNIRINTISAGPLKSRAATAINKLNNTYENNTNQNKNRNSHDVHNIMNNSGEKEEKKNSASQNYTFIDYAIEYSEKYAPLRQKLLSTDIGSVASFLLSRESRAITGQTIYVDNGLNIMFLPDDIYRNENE

Plasmodium falciparum [9] = test: Antimalarial activity against chloroquine sensitive Plasmodium falciparum 3D7 assessed as reduction in schizont maturation incubated for 24 hrs by Giemsa staining based assay; format: functional, organism-based; settings: 3D7, 24 h
Plasmodium berghei [10] = test: Antimalarial activity against Plasmodium berghei ANKA infected in Swiss albino mouse assessed as parasitemia suppression at 50 micromol/kg, po administered for 4 days and measured at 24 hrs post-last dose by Giemsa staining based microscopic method relative to control; format: functional; settings: dose 50 µmol/kg; time 4 day
Plasmodium falciparum [11] = test: Antimalarial activity against chloroquine resistant Plasmodium falciparum RKL9 assessed as reduction in schizont maturation incubated for 24 hrs by Giemsa staining based assay; format: functional, organism-based; settings: RKL9, 24 h
Hemozoin = test: Inhibition of beta-hematin formation at 5 to 100 mM incubated for 48 hrs; settings: dose 5-100 mM
Plasmodium berghei [12] = test: Antimalarial activity against Plasmodium berghei ANKA infected in Balb-C mouse assessed as mouse survival time at 10 mg/kg, ip administered once per day for 4 consecutive days (reference value: 8.20 +/- 0.20 days); format: functional; settings: time 4 day
Plasmodium berghei [13] = test: Antimalarial activity against Plasmodium berghei ANKA infected in Balb-C mouse assessed as parasitemia at 10 mg/kg, ip administered once daily for 4 consecutive days by Giemsa staining based assay relative to control; format: functional; settings: time 4 day
Plasmodium falciparum [14] = test: Antiplasmodial activity against chloroquine-resistant/mefloquine resistant early ring stage Plasmodium falciparum Dd2 by whole-cell SYBR Green I based assay; format: functional, organism-based
Plasmodium falciparum [15] = test: Antiplasmodial activity against chloroquine-sensitive/mefloquine resistant early ring stage Plasmodium falciparum 3D7 by whole-cell SYBR Green I based assay; format: functional, organism-based
Plasmodium falciparum [16] = test: Antiplasmodial activity against Plasmodium falciparum IPC5202 by whole-cell SYBR Green I based assay; format: functional, organism-based
Plasmodium falciparum [17] = test: Antiplasmodial activity against Plasmodium falciparum IPC4912 by whole-cell SYBR Green I based assay; format: functional, organism-based
Plasmodium falciparum [18] = test: Antimalarial activity against chloroquine resistant Plasmodium falciparum; format: functional, organism-based
Plasmodium falciparum [19] = test: Antimalarial activity against chloroquine sensitive Plasmodium falciparum; format: functional, organism-based
[20] = test system: Falcipain-2 (Plasmodium falciparum); test: Inhibition of Plasmodium falciparum falcipain-2 in enzyme assay
Plasmodium falciparum [21] = test: Antiplasmodial activity against ring stage Plasmodium falciparum incubated for 72 hrs by SYBR Green I based assay; format: functional, organism-based

SMILES: CC(C)c1nc(CCN)c[nH]1
- IC50 (Plasmodium falciparum [1]): 10000 nM
- IC50 (Plasmodium falciparum [2]): 10000 nM

SMILES: CCOC(=O)c1cn(-c2ccnc3cc(Cl)ccc23)nn1
- IC50 (Plasmodium falciparum [3]): 1400 nM

SMILES: COc1ccc(CN2CC2Cn2cc(-c3ccccc3)nn2)cc1 (stereo unspecified)
- IC50 (Plasmodium falciparum [4]): ≤ 25000 nM

- IC50 (Plasmodium falciparum [5]): < 5000 nM
SMILES: NC(=S)N1N=C(c2ccc(N)cc2)CC1c1cn(-c2ccc(Cl)cc2)nc1-c1ccccc1 (stereo unspecified)

- IC50 (Plasmodium falciparum [5]): < 5000 nM
SMILES: COc1ccc(C2=NN(C(N)=S)C(c3cn(-c4ccc(OC)cc4)nc3-c3ccccc3)C2)cc1 (stereo unspecified)

SMILES: Cc1ccc(-c2cn(CC3CN3Cc3ccccc3)nn2)cc1 (stereo unspecified)
- IC50 (Plasmodium falciparum [4]): ≤ 25000 nM
- IC50 (Plasmodium falciparum [6]): ≤ 25000 nM

SMILES: COc1ccccc1Nc1n[nH]c(N)c1C#N
- IC50 (Plasmodium falciparum [7]): 140 nM

SMILES: CC(C)n1cncc1CCN
- IC50 (Plasmodium falciparum [1]): 10000 nM
- IC50 (Plasmodium falciparum [2]): 10000 nM

SMILES: COc1cccc(Nc2n[nH]c(N)c2C#N)c1
- IC50 (Plasmodium falciparum [7]): 140 nM

- IC50 [8]: 50000 nM
SMILES: O=[N+]([O-])c1ccc(-c2cc(C(F)(F)F)nn2-c2ccccc2)cc1

- IC50 (Plasmodium falciparum [9]): 4.4 nM
SMILES: CCOC(=O)C1=CNC(C)=C(C(=O)OCC)C1c1ccc(OCC(=O)N/N=C/c2cn(-c3ccccc3)nc2-c2ccccc2)cc1 (stereo unspecified)

SMILES: Cc1ccc(-n2cc(C=O)c(-c3ccccc3)n2)cc1
- Activity (Plasmodium berghei [10]): 83%
- IC50 (Plasmodium falciparum [11]): 33 nM

SMILES: Cc1ccc(NC(=O)c2ccc3[nH]c(-c4ccc([N+](=O)[O-])o4)nc3c2)c(C)c1
- inhibition (Hemozoin): < 98%
- Time (Plasmodium berghei [12]): 20.2 days
- Activity (Plasmodium berghei [13]): 3.05%

SMILES: O=[N+]([O-])c1ccc(N/N=C/c2cn(-c3ccc(Cl)cc3)nc2-c2ccccc2)c([N+](=O)[O-])c1
- IC50 (Plasmodium falciparum [11]): 33 nM

SMILES: Cn1nnnc1NCC1CCC2(CC1)OOC1(OO2)C2CC3CC(C2)CC1C3 (stereo unspecified)
- IC50 (Plasmodium falciparum [14]): 0.3 nM
- IC50 (Plasmodium falciparum [15]): 0.3 nM
- IC50 (Plasmodium falciparum [16]): 0.3 nM
- IC50 (Plasmodium falciparum [17]): 0.3 nM

SMILES: CC(=O)N1CCN(c2ccc(OCC3COC(Cn4ccnc4)(c4ccc(Cl)cc4Cl)O3)cc2)CC1 (stereo unspecified) [KETOCONAZOLE]
- IC50 (Plasmodium falciparum [18]): 200 nM
- IC50 (Plasmodium falciparum [19]): 200 nM

SMILES: Cc1ccc(-n2cc(/C=N/Nc3ccncc3)c(-c3ccccc3)n2)cc1
- IC50 (Plasmodium falciparum [11]): 33 nM

SMILES: CC(C)(C)c1nc(CCN)c[nH]1
- IC50 (Plasmodium falciparum [1]): 10000 nM
- IC50 (Plasmodium falciparum [2]): 10000 nM

- IC50 [20]: 690 nM
SMILES: COc1cc(/C=C(/C#N)c2nc3ccccc3[nH]2)cc(OC)c1

SMILES: COc1cccc(/C=C(/C#N)c2nc3ccccc3[nH]2)c1
- IC50 [20]: 690 nM

SMILES: Clc1ccc2c(-n3cc(-c4ccccc4)nn3)ccnc2c1
- IC50 (Plasmodium falciparum [3]): 1400 nM

- IC50 [8]: 30000 nM
SMILES: Cc1ccc(-c2nn(-c3nccc(C(F)(F)F)n3)cc2C=O)cc1

SMILES: C[C@@H]1CC[C@H]2[C@@H](C)C(=O)O[C@@H]3O[C@@]4(C)CC[C@@H]1[C@]32OO4 [ARTEMISININ]
- IC50 (Plasmodium falciparum [9]): 6 nM

SMILES: Clc1ccccc1CN1CC1Cn1cc(-c2ccccc2)nn1 (stereo unspecified)
- IC50 (Plasmodium falciparum [6]): ≤ 25000 nM

SMILES: CC(C)(C)n1c(CC(N)C(=O)O)cnc1Cc1ccccc1 (stereo unspecified)
- IC50 (Plasmodium falciparum [1]): 10000 nM
- IC50 (Plasmodium falciparum [2]): 10000 nM

SMILES: COC(=O)c1c(Nc2ccccc2)n[nH]c1N
- IC50 (Plasmodium falciparum [7]): 140 nM

- IC50 (Plasmodium falciparum [4]): ≤ 25000 nM
SMILES: CCNCC(Cn1cc(-c2ccccc2)nn1)NCc1ccccc1 (stereo unspecified)

SMILES: N#Cc1c(Nc2ccccc2)n[nH]c1N
- IC50 (Plasmodium falciparum [7]): 140 nM

SMILES: CC(C)c1nc(CC(N)C(=O)O)c[nH]1 (stereo unspecified)
- IC50 (Plasmodium falciparum [1]): 10000 nM
- IC50 (Plasmodium falciparum [2]): 10000 nM

SMILES: Clc1ccc2c(-n3cc(OC4CCCCO4)nn3)ccnc2c1 (stereo unspecified)
- IC50 (Plasmodium falciparum [3]): 1400 nM

SMILES: c1ccc(-n2nnnc2OCC2CCC3(CC2)OOC2(O3)C3CC4CC(C3)CC2C4)cc1 (stereo unspecified)
- IC50 (Plasmodium falciparum [14]): 0.3 nM
- IC50 (Plasmodium falciparum [15]): 0.3 nM
- IC50 (Plasmodium falciparum [16]): 0.3 nM
- IC50 (Plasmodium falciparum [17]): 0.3 nM

SMILES: FC(F)c1cn(-c2ccnc3cc(Cl)ccc23)nn1
- IC50 (Plasmodium falciparum [3]): 1400 nM

- IC50 (Plasmodium falciparum [5]): < 5000 nM
SMILES: COc1ccc(-n2cc(C3CC(c4ccc(N)cc4)=NN3C(N)=S)c(-c3ccccc3)n2)cc1 (stereo unspecified)

SMILES: O=Cc1cn(-c2ccc(Cl)cc2)nc1-c1ccccc1
- Activity (Plasmodium berghei [10]): 83%
- IC50 (Plasmodium falciparum [11]): 33 nM

SMILES: Clc1ccccc1C(c1ccccc1)(c1ccccc1)n1ccnc1 [CLOTRIMAZOLE]
- IC50 (Plasmodium falciparum [18]): 200 nM
- IC50 (Plasmodium falciparum [19]): 200 nM

SMILES: NCCc1cncn1Cc1ccccc1
- IC50 (Plasmodium falciparum [1]): 10000 nM
- IC50 (Plasmodium falciparum [2]): 10000 nM

- IC50 (Plasmodium falciparum [5]): < 5000 nM
SMILES: NC(=S)N1N=C(c2ccc(N)cc2)CC1c1cn(-c2ccccc2)nc1-c1ccccc1 (stereo unspecified)

SMILES: Cn1nnnc1NCC1CCC2(CC1)OOC1(O2)C2CC3CC(C2)CC1C3 (stereo unspecified)
- IC50 (Plasmodium falciparum [14]): 0.3 nM
- IC50 (Plasmodium falciparum [15]): 0.3 nM
- IC50 (Plasmodium falciparum [16]): 0.3 nM
- IC50 (Plasmodium falciparum [17]): 0.3 nM

SMILES: COc1ccc(Nc2n[nH]c(N)c2C#N)cc1
- IC50 (Plasmodium falciparum [7]): 140 nM

- IC50 [20]: 690 nM
SMILES: COc1ccc(/C=C(\C#N)c2nc3ccccc3[nH]2)cc1O

SMILES: CC(C)(C)c1nc(CC(N)C(=O)O)c[nH]1 (stereo unspecified)
- IC50 (Plasmodium falciparum [1]): 10000 nM
- IC50 (Plasmodium falciparum [2]): 10000 nM

SMILES: CC(C)n1c(CC(N)C(=O)O)cnc1Cc1ccccc1 (stereo unspecified)
- IC50 (Plasmodium falciparum [1]): 10000 nM
- IC50 (Plasmodium falciparum [2]): 10000 nM

- IC50 (Plasmodium falciparum [21]): 725 nM
SMILES: CCOC(=O)c1sc(N/N=C(\C)c2ccccn2)nc1C

SMILES: CC(C)n1cncc1CC(N)C(=O)O (stereo unspecified)
- IC50 (Plasmodium falciparum [1]): 10000 nM
- IC50 (Plasmodium falciparum [2]): 10000 nM

- IC50 (Plasmodium falciparum [4]): ≤ 25000 nM
SMILES: CCNCC(Cn1cc(-c2ccccc2)nn1)NCc1ccc(Cl)cc1 (stereo unspecified)

SMILES: CNCC(Cn1cc(-c2ccccc2)nn1)NCc1ccccc1Cl (stereo unspecified)
- IC50 (Plasmodium falciparum [4]): ≤ 25000 nM
- IC50 (Plasmodium falciparum [6]): ≤ 25000 nM

SMILES: Cc1ccc(-n2cc(C(=O)O)c(-c3ccccc3)n2)cc1
- Activity (Plasmodium berghei [10]): 83%
- IC50 (Plasmodium falciparum [11]): 33 nM

SMILES: O=C(O)c1cn(-c2ccc(Cl)cc2)nc1-c1ccccc1
- Activity (Plasmodium berghei [10]): 83%
- IC50 (Plasmodium falciparum [11]): 33 nM

SMILES: COC(=O)c1c(Nc2cccc(OC)c2)n[nH]c1N
- IC50 (Plasmodium falciparum [7]): 140 nM

- IC50 (Plasmodium falciparum [5]): < 5000 nM
SMILES: Cc1ccc(-n2cc(C3CC(c4ccc(N)cc4)=NN3C(N)=S)c(-c3ccccc3)n2)cc1 (stereo unspecified)

SMILES: Clc1ccc(COC(Cn2ccnc2)c2ccc(Cl)cc2Cl)c(Cl)c1 (stereo unspecified) [MICONAZOLE]
- IC50 (Plasmodium falciparum [18]): 200 nM
- IC50 (Plasmodium falciparum [19]): 200 nM

SMILES: Clc1ccc2c(-n3cc(C4CC4)nn3)ccnc2c1
- IC50 (Plasmodium falciparum [3]): 1400 nM
